Measured values from paper PMC6155387, “Alkoxy and Enediyne Derivatives Containing 1,4-Benzoquinone Subunits—Synthesis and Antitumor Activity” (Molecules : A Journal of Synthetic Chemistry and Natural …, 2017).
Read-outs that look alike come from different tables or passages of the source.

How the values were obtained:
[1] = test system: SNB-19; details: glioblastoma SNB-19, read-out: IC50 ± SD SNB-19, cited from earlier work
[2] = test system: MDA-MB-231; details: breast cancer MDA-MB-231, read-out: IC50 ± SD MDA-MB-231, cited from earlier work
[3] = test system: C-32; details: melanoma C-32, read-out: IC50 ± SD C-32, cited from earlier work
[4] = test system: HFF-1; details: normal fibroblasts HFF-1, cited from earlier work; for IC50 ± SD HFF-1: Neg: negative in the concentration used, footnote a; for IC50: footnote b, read-out: IC50 ± SD HFF-1
[5] = test system: MDA-MB-231; assay: antiproliferative activity (WST-1), breast cancer MDA-MB-231; type: cell-based, human; details: for SI (IC50 HFF-1/IC50 cancer line) MDA-MB-231: selectivity index, HFF-1 vs MDA-MB-231
Procedure: (§1) Biological activity of the tested compounds was assessed in vitro using cultured cell lines: melanoma C-32 (ATCC, Rockville, MD, USA), glioblastoma SNB-19 (DSMZ, Braunschweig, Germany), breast cancer MDA-MB-231 (ATCC, Rockville, MD, USA), and normal human fibroblasts derived from foreskin HFF-1 (ATCC, Rockville, MD, USA). Cell cultures were maintained using DMEM (Lonza, Basel, Switzerland) supplemented with 10% fetal bovine serum (FBS) (Biological Industries Cromwell, CT, USA) and a mixture of penicillin (10,000 U/mL) and streptomycin (10 mg/mL) (Lonza, Basel, Switzerland).
(§2) Cells were cultured using 96-well plates (Nunc Thermo Fisher Scientific, Waltham, MA, USA). Cells were seeded (5 × 10^3 cells/well) and incubated for 24 h in a standard incubator (37 °C, 5% CO2, relative humidity 95%). Subsequently, the medium was replaced with a fresh aliquot containing an examined compound (0.01; 0.05; 0.1; 0.5; 1; 5; 10; 50; 100 µg/mL), and cells were further incubated for another 72 h. Upon the conclusion of incubation, a CVDE test (Aniara, West Chester, OH, USA) using crystal violet was performed to assess the relative number of cells in the culture. A WST-1 test (Roche) was performed to examine the metabolic activity of cells and test for the presence of LDH in the medium (Roche Diagnostics GmbH, Mannheim, Germany), allowing for the assessment of the relative number of dead cells (i.e., cytotoxicity of the examined compound). UVM340 microplate readers (BIOGENET, Józefów, Poland) were used to read absorbance values.
(§3) WST-1 colorimetric assay for cell proliferation (Roche Diagnostics GmbH, Mannheim, Germany, reagent kit cat. 11644807001) is based on the viable cells’ ability to cleave the bright red-colored stable tetrazolium salt WST-1 to dark red soluble formazan. This bioreduction occurs under the influence of mitochondrial dehydrogenases (depends mostly on production of NAD(P)H in viable cells). The amount of formazan dye formed correlates directly with the number of metabolically active cells in the culture and is measured by absorbance (λ = 450 nm) following 1 h incubation of cells with the reagent.

[6] = test system: C-32; assay: antiproliferative activity (WST-1), melanoma C-32; type: cell-based, human; details: for SI (IC50 HFF-1/IC50 cancer line) C-32: selectivity index, HFF-1 vs C-32
Procedure: as §1, §2, §3

[7] = test system: SNB-19; assay: antiproliferative activity (WST-1), glioblastoma SNB-19; type: cell-based, human; details: for SI (IC50 HFF-1/IC50 cancer line) SNB-19: selectivity index, HFF-1 vs SNB-19
Procedure: as §1, §2, §3

[8] = test system: HFF-1; assay: antiproliferative activity (WST-1), normal fibroblasts HFF-1; type: cell-based, human; details: normal fibroblasts HFF-1, 72 h, Neg: negative in the concentration used, read-out: IC50 ± SD HFF-1
Procedure: as §1, §2, §3

SMILES	IC50 ([1]; footnote a)	IC50 ([2]; footnote a)	IC50 ([3]; footnote a)	IC50 ± SD HFF-1 [4]	SI (IC50 HFF-1/IC50 cancer line) C-32 [6]	SI (IC50 HFF-1/IC50 cancer line) SNB-19 [7]	further results
CCCOC1=C(Cl)C(=O)c2cccnc2C1=O [Compound 7]	0.4 ± 0.1 µM	22.4 ± 2.7 µM	0.2 ± 0.1 µM	Neg			
C=CCOC1=C(Cl)C(=O)c2cccnc2C1=O [Compound 8]	0.3 ± 0.1 µM	17.2 ± 2.8 µM	0.28 ± 0.1 µM	Neg			
C#CCOC1=C(Cl)C(=O)c2cccnc2C1=O [Compound 9]					10.31	0.16	IC50 ([1]; footnote b): 20.4 ± 0.2 µM; IC50 ([2]; footnote b): 21.4 ± 3.4 µM; SI (IC50 HFF-1/IC50 cancer line) MDA-MB-231 [5]: 0.15; IC50 ([3]; footnote b): 0.32 ± 0.1 µM; IC50 [4]: 3.3 ± 0.3 µM
CCCOC1=C(OCCC)C(=O)c2ncccc2C1=O [Compound 16]	0.7 ± 0.02 µM	3 ± 0.3 µM	1.1 ± 0.1 µM	Neg			
C=CCOC1=C(OCC=C)C(=O)c2ncccc2C1=O [Compound 17]	0.2 ± 0.1 µM	12.6 ± 2.7 µM	1.5 ± 0.1 µM	Neg			
C#CCOC1=C(OCC#C)C(=O)c2ncccc2C1=O [Compound 18]					50.40	0.58	IC50 ([1]; footnote b): 21.7 ± 1.1 µM; IC50 ([2]; footnote b): 1.8 ± 0.1 µM; SI (IC50 HFF-1/IC50 cancer line) MDA-MB-231 [5]: 7.00; IC50 ([3]; footnote b): 0.3 ± 0.1 µM; IC50 [4]: 12.6 ± 0.9 µM
N.N.[Cl][Pt][Cl] [cisplatin, reference compound]					0.55	0.48	IC50 [8]: 9.1 ± 1.8 µM; IC50 ([5]; breast cancer MDA-MB-231, 72 h, WST-1, Neg: negative in the concentration used, read-out: IC50 ± SD MDA-MB-231): 25.5 ± 0.2 µM; IC50 ([6]; melanoma C-32, 72 h, WST-1, Neg: negative in the concentration used, read-out: IC50 ± SD C-32): 16.4 ± 1.2 µM; IC50 ([7]; glioblastoma SNB-19, 72 h, WST-1, Neg: negative in the concentration used, read-out: IC50 ± SD SNB-19): 18.9 ± 0.4 µM
